Literature values, collected in patent US20080227813A1, “Pharmaceutical compositions and methods for treating diseases associated with neurodegeneration” (priority 2006, published 2008).

Test system: patients suffering from ALS
Details: riluzole alone, previous studies; cited from earlier work

Question: Which “effect on VC” value does the source give for `Nc1nc2ccc(OC(F)(F)F)cc2s1` [riluzole, Riluzole] here?
Answer: failed to demonstrate any effect
